Assay results: patent publication US20150087627A1, “COMBINATION OF KINASE INHIBITORS AND USES THEREOF” (Intellikine LLC, priority 2011, published 2015)
Like-named read-outs stand apart in the source and are kept apart here.

Assays:
Format in all cases: biochemical
PI3K α (p110α/p85α) = target: T1, PI3K α (p110α/p85α) (Homo sapiens, UniProt P42336); assay: PI 3-Kinase (human) HTRF assay, PI3K α; details: read-out: PI3K α IC50
T1 construct: purchased Upstate / Millipore Corporation

PI3K β (p110β/p85α) = target: T2, PI3K β (p110β/p85α) (Homo sapiens, UniProt P42338); assay: PI 3-Kinase (human) HTRF assay, PI3K β; details: read-out: PI3K β IC50
T2 construct: purchased Upstate / Millipore Corporation

PI3K γ (p110γ) = target: T3, PI3K γ (p110γ) (Homo sapiens, UniProt P48736); assay: PI 3-Kinase (human) HTRF assay, PI3K γ; details: read-out: PI3K γ IC50
T3 construct: purchased Upstate / Millipore Corporation

PI3K δ = target: T4, PI3K δ (Homo sapiens, UniProt O00329); assay: PI 3-Kinase (human) HTRF assay, PI3K δ; details: read-out: PI3K δ IC50
T4 construct: purchased Upstate / Millipore Corporation
T4 sequence (O00329 whole entry): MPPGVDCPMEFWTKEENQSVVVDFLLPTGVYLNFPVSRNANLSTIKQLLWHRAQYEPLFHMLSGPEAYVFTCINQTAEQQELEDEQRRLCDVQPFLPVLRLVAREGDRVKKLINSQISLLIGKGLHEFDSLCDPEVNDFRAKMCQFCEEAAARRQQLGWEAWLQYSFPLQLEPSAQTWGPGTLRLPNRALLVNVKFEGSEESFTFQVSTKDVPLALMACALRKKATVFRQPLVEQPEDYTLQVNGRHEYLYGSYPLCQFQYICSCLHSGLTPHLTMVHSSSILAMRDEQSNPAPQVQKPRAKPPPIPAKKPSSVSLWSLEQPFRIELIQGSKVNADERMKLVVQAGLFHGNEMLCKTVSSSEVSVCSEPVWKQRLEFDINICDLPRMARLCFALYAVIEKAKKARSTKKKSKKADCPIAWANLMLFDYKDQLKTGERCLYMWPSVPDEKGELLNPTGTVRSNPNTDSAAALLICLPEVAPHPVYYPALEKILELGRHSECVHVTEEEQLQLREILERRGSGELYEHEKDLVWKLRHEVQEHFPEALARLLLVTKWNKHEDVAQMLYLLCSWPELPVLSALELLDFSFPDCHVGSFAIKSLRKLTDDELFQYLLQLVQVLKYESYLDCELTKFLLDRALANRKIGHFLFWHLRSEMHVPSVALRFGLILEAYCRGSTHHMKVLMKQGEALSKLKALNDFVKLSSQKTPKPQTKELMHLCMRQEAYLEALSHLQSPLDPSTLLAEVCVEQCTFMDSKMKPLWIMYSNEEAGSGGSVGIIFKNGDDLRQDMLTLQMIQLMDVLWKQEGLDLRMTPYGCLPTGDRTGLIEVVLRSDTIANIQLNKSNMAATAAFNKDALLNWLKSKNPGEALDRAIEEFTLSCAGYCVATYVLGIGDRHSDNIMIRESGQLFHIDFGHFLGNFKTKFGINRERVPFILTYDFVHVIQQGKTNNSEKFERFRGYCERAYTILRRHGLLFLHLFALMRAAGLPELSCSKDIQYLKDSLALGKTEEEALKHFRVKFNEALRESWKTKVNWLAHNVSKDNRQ
T4 sequence (P27986 whole entry partner): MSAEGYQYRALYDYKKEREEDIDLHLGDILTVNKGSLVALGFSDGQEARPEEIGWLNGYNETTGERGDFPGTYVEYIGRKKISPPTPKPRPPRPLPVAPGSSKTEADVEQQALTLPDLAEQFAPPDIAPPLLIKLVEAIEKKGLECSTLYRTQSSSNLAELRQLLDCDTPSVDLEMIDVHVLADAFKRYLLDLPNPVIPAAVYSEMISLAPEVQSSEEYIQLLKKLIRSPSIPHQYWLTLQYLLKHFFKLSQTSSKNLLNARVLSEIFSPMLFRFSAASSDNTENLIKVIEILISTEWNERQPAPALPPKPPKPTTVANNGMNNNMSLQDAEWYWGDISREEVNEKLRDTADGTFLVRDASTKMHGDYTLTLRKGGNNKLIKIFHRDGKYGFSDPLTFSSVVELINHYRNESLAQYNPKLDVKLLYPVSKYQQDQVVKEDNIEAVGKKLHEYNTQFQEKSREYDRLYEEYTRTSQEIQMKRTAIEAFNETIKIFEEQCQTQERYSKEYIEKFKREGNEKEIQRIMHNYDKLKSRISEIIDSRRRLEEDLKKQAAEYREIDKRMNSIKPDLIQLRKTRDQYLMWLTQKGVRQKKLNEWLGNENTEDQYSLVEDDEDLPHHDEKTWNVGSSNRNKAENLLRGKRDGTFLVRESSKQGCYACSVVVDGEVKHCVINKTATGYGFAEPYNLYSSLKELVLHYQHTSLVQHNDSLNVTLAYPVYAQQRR

T3 sequence (P48736 whole entry): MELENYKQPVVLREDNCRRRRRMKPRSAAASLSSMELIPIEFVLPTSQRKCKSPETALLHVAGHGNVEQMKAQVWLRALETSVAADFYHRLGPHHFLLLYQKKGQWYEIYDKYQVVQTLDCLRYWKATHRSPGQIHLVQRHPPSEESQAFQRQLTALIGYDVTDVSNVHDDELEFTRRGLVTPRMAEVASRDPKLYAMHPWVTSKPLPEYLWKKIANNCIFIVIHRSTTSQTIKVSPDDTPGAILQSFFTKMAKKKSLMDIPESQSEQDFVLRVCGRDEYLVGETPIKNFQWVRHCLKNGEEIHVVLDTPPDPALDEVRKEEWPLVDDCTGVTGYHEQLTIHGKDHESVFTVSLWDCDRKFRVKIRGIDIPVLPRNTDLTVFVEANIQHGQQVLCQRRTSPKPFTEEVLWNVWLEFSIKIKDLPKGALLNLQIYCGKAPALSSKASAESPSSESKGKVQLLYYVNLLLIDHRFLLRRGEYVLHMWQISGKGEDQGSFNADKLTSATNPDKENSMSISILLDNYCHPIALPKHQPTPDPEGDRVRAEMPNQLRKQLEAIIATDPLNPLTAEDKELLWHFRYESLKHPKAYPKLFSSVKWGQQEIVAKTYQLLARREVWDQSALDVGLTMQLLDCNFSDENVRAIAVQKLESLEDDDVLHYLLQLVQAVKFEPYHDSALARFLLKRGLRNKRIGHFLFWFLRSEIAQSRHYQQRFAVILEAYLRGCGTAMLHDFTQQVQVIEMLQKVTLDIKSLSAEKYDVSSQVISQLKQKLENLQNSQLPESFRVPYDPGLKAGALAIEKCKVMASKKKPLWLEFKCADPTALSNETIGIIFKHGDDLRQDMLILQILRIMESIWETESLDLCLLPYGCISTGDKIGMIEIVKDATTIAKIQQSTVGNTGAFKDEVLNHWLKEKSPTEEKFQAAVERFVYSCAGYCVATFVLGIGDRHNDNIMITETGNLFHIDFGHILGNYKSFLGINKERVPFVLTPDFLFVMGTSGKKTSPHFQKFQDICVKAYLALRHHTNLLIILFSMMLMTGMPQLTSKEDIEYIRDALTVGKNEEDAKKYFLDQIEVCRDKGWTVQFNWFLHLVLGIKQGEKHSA
T1 sequence (P42336 whole entry): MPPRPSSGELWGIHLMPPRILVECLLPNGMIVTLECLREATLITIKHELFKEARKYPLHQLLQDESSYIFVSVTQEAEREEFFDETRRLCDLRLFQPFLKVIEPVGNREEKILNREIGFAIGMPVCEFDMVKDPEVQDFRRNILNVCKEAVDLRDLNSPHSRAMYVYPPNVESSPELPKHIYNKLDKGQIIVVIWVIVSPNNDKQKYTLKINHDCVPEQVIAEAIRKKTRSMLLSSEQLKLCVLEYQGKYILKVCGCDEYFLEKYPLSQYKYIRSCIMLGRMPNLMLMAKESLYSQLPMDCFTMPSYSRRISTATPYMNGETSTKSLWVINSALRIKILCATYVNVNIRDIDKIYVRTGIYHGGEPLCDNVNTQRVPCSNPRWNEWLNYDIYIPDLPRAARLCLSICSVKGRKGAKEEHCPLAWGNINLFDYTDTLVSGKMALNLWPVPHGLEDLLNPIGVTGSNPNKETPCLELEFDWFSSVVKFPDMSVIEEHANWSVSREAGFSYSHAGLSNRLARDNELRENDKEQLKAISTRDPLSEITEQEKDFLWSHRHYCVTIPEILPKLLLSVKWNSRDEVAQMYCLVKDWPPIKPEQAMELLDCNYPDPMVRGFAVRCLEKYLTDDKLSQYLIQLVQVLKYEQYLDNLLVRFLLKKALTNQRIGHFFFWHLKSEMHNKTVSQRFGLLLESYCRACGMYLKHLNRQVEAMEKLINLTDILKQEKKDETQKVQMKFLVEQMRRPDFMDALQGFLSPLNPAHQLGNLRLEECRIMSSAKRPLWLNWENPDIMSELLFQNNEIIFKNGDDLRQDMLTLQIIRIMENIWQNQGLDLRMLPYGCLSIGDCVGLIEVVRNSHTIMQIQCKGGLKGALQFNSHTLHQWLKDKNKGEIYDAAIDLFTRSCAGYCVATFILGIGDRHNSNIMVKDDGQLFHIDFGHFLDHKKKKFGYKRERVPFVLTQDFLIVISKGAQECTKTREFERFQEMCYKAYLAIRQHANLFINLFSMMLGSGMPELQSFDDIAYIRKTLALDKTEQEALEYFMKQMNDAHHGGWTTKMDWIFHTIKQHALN
T1 sequence (P27986 whole entry partner): as the sequence (P27986 whole entry partner) above
T2 sequence (P42338 whole entry): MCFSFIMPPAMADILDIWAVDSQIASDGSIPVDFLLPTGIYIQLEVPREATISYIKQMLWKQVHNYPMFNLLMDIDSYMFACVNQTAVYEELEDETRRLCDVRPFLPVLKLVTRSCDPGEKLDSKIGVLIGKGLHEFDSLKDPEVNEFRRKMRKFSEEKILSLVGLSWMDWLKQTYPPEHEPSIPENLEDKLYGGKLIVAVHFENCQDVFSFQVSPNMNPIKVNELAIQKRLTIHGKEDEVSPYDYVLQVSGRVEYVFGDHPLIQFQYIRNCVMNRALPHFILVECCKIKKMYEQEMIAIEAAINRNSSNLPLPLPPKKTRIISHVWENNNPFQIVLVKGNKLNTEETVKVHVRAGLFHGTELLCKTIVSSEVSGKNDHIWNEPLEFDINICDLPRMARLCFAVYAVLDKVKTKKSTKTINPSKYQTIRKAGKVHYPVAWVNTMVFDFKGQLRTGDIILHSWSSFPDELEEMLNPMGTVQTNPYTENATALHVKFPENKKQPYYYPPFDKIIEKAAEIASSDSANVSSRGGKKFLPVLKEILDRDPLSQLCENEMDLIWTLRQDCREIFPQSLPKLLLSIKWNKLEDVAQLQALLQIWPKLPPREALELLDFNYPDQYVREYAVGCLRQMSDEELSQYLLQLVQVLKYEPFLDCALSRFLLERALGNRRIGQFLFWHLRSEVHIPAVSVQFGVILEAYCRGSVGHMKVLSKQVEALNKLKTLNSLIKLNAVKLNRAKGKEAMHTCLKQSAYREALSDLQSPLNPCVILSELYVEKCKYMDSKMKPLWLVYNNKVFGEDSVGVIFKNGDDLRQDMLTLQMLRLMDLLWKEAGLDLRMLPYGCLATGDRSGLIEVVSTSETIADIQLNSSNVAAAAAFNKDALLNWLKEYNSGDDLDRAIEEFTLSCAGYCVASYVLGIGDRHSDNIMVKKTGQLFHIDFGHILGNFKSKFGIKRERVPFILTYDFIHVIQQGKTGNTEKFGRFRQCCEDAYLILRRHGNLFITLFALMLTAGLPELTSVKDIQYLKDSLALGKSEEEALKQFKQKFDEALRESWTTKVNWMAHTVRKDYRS
T2 sequence (P27986 whole entry partner): as the sequence (P27986 whole entry partner) above

| SMILES | IC50 (PI3K α (p110α/p85α)) [nM] | IC50 (PI3K β (p110β/p85α)) [µM] | IC50 (PI3K γ (p110γ)) [nM] | IC50 (PI3K δ) [µM] | IC50 (PI3K α (p110α/p85α); Table 4 (PI3K α inhibitors)) [nM] | IC50 (PI3K β (p110β/p85α); Table 4 (PI3K α inhibitors)) [µM] | IC50 (PI3K γ (p110γ); Table 4 (PI3K α inhibitors)) [nM] | IC50 (PI3K δ; Table 4 (PI3K α inhibitors)) [µM] |
| --- | --- | --- | --- | --- | --- | --- | --- | --- |
| Nc1nsc2ccc(-c3ccc4nccc(-c5ccncc5)c4c3)cc12 [Compound 12] | > 10000 | > 10 | > 10000 | > 10 |  |  |  |  |
| Nc1nc2cc(-c3cc4nccc(-c5ccncc5)c4s3)ccc2o1 [Compound 14] | < 10000 | > 10 | < 10000 | > 10 |  |  |  |  |
| Nc1nc2cccc(-c3ccc4nccc(-c5ccncc5)c4c3)c2s1 [Compound 17] | < 100 | < 1 | < 100 | < 1 |  |  |  |  |
| Nc1noc2ccc(-c3ccc4nccc(-c5ccncc5)c4c3)cc12 [Compound 18] | < 10000 | > 10 | < 10000 | > 10 |  |  |  |  |
| CC(=O)Nc1cn2cc(-c3ccc4nccc(-c5ccncc5)c4c3)ccc2n1 [Compound 19] | > 10000 | > 10 | > 10000 | > 10 |  |  |  |  |
| CN1CCN(c2ccnc3ccc(-c4ccc5oc(N)nc5c4)cc23)CC1 [Compound 21] | < 1000 | < 10 | < 10000 | < 10 |  |  |  |  |
| CN1CCN(c2ncnc3ccc(-c4ccc5oc(N)nc5c4)cc23)CC1 [Compound 23] | < 100 | < 1 | < 100 | < 10 |  |  |  |  |
| Nc1nc2cc(-c3ccc4ncnc(NC5CCOCC5)c4c3)ccc2o1 [Compound 24] | < 100 | < 1 | < 100 | < 0.1 |  |  |  |  |
| Nc1nc2cc(-c3c[nH]c4nccc(-c5ccncc5)c34)ccc2o1 [Compound 25] | < 10000 | > 10 | < 10000 | > 10 |  |  |  |  |
| CN1CCN(c2cc(-c3ccnc4ccc(-c5ccc6oc(N)nc6c5)cc34)ccn2)CC1 [Compound 30] | < 100 |  | < 100 | < 0.1 |  |  |  |  |
| Nc1nc2cc(-c3ccc4nccc(-c5cccnc5)c4c3)ccc2o1 [Compound 31] | < 100 |  | < 100 | < 0.1 |  |  |  |  |
| Nc1nc2cc(-c3ccc4nccc(NC5CCOCC5)c4c3)ccc2o1 [Compound 32] | < 10000 |  | < 10000 | > 10 |  |  |  |  |
| Nc1nc2cc(-c3ccc4nccc(NCCN5CCOCC5)c4c3)ccc2o1 [Compound 33] | < 100 |  | < 1000 | < 1 |  |  |  |  |
| CN1CCC(Oc2ncnc3ccc(-c4ccc5oc(N)nc5c4)cc23)CC1 [Compound 34] | < 100 |  | < 1000 | < 1 |  |  |  |  |
| Nc1nc2cc(-c3ccc4ncc(-c5cn[nH]c5)n4c3)ccc2o1 [Compound 38] | < 100 |  | < 100 | < 0.1 |  |  |  |  |
| CN1CCN(c2cc(-c3cnc4ccc(-c5ccc6oc(N)nc6c5)cn34)ccn2)CC1 [Compound 43] | < 100 |  | < 100 | < 0.1 |  |  |  |  |
| Nc1nc2cc(-c3ccc4ncn(C5CCOCC5)c4c3)ccc2o1 [Compound 48] | < 10000 | > 10 | > 10000 | > 10 |  |  |  |  |
| Nc1nc2cc(-c3ccc4ncc(-c5ccc(N6CCOCC6)nc5)n4c3)ccc2o1 [Compound 51] | < 100 | < 1 | < 1000 | < 1 |  |  |  |  |
| Nc1nc2cc(-c3ccc4ncc(N5CCOCC5)n4c3)ccc2o1 [Compound 53] | < 10000 | > 10 | > 10000 | > 10 |  |  |  |  |
| Nc1nc2cc(-c3ccc4ncc(N5CCOCC5)n4n3)ccc2o1 [Compound 57] | < 1000 | < 1 | < 10000 | > 10 |  |  |  |  |
| Nc1nc2cc(-c3ccc4ncc(-c5cccnc5)n4n3)ccc2o1 [Compound 58] | < 100 | < 0.1 | < 100 | < 0.1 |  |  |  |  |
| Nc1nc2cc(-c3ccc4ncc(-c5cn[nH]c5)n4n3)ccc2o1 [Compound 59] | < 100 | < 0.1 | < 100 | < 1 |  |  |  |  |
| Nc1nc2cc(-c3cnc4ncc(-c5ccncc5)n4c3)ccc2o1 [Compound 61] | > 10000 | > 10 | > 10000 | > 10 |  |  |  |  |
| Nc1nc2ccc(-c3ccc4ncn(C5CCOCC5)c(=O)c4c3)cc2o1 [Compound 63] | < 10000 | > 10 | > 10000 | > 10 |  |  |  |  |
| CC(=O)N1CCC(n2cnc3ccc(-c4ccc5oc(N)nc5c4)cc3c2=O)CC1 [Compound 66] | < 10000 |  | > 10000 | > 10 |  |  |  |  |
| CS(=O)(=O)N1CCC(n2cnc3ccc(-c4ccc5oc(N)nc5c4)cc3c2=O)CC1 [Compound 67] | < 1000 |  | > 10000 | > 10 |  |  |  |  |
| Nc1nc2cc(-c3cn4c(-c5ccncc5)cnc4cn3)ccc2o1 [Compound 68] | < 100 | < 10 | < 1000 | < 10 |  |  |  |  |

| SMILES | IC50 (PI3K α (p110α/p85α)) [nM] | IC50 (PI3K β (p110β/p85α)) [µM] | IC50 (PI3K γ (p110γ)) [nM] | IC50 (PI3K δ) [µM] | IC50 (PI3K α (p110α/p85α); Table 4 (PI3K α inhibitors)) [nM] | IC50 (PI3K β (p110β/p85α); Table 4 (PI3K α inhibitors)) [µM] | IC50 (PI3K γ (p110γ); Table 4 (PI3K α inhibitors)) [nM] | IC50 (PI3K δ; Table 4 (PI3K α inhibitors)) [µM] |
| --- | --- | --- | --- | --- | --- | --- | --- | --- |
| Nc1nc2cc(-c3cn4c(-c5cn[nH]c5)cnc4cn3)ccc2o1 [Compound 69] | < 1000 | < 10 | < 1000 | < 10 |  |  |  |  |
| Nc1nc2cc(-c3ccc4nccc(-c5ccncc5)c4c3)ccc2s1 [Compound 70] | < 100 | < 0.1 | < 100 | < 0.1 |  |  |  |  |
| Nc1nc2cc(-c3ccc4ncc(-c5ccncc5)nc4c3)ccc2o1 [Compound 71] | < 100 | < 10 | < 100 | < 1 |  |  |  |  |
| CCN1CCC(n2cnc3ccc(-c4ccc5oc(N)nc5c4)cc3c2=O)CC1 [Compound 73] | < 1000 | < 10 | > 10000 | > 10 |  |  |  |  |
| CN1CCN(c2nc3cc(-c4ccc5oc(N)nc5c4)ccc3c(=O)n2C)CC1 [Compound 79] | < 10000 | > 10 | > 10000 | > 10 |  |  |  |  |
| Cn1c(N2CCOCC2)nc2cc(-c3ccc4oc(N)nc4c3)ccc2c1=O [Compound 80] | < 1000 | > 10 | > 10000 | > 10 |  |  |  |  |
| CN1CCN([C@H]2CCN(c3cnc4ccc(-c5ccc6oc(N)nc6c5)cc4n3)C2)CC1 [Compound 381] | < 100 | < 1 | < 10000 |  |  |  |  |  |
| Nc1nc2cc(-c3ccc4ncc(C(=O)N5CC(N6CC[C@@H](O)C6)C5)n4c3)ccc2o1 [Compound 470] | < 100 | < 10 | < 1000 |  |  |  |  |  |
| O=C(c1cnc2ccc(-c3cnc4[nH]ncc4c3)cn12)N1CCOCC1 [Compound 492] |  | < 10 | < 10000 | < 10 |  |  |  |  |
| Cc1ncc(-c2ccc3ncc(C(=O)N4CCOCC4)n3c2)c2cn[nH]c12 [Compound 530] | < 100 | > 10 | > 10000 |  |  |  |  |  |
| O=C(c1cnc2ccc(-c3ccnc4[nH]ncc34)cn12)N1CCOCC1 [Compound 532] |  | > 10 | > 10000 | > 10 |  |  |  |  |
| O=C(c1cnc2ccc(-c3cnc4cc[nH]c4c3)cn12)N1CCOCC1 [Compound 534] |  | > 10 | > 10000 | > 10 |  |  |  |  |
| Cc1ncc(-c2ccc3ncc(C(=O)N4CCOCC4)n3c2)c2cc[nH]c12 [Compound 536] |  | > 10 | > 10000 | > 10 |  |  |  |  |
| Cc1ncc(-c2ccc3ncc(C(=O)N4C5CCC4COC5)n3c2)c2cn[nH]c12 [Compound 538] | < 100 | > 10 | > 10000 |  |  |  |  |  |
| CS(=O)(=O)N1CCN(C2CN(c3cnc4ccc(-c5ccc6oc(N)nc6c5)nc4n3)C2)CC1 [Compound 559] |  |  |  |  | < 100 | > 10 | < 1000 |  |
| Nc1nc2cc(-c3ccc4ncc(C5=CCOCC5)nc4n3)ccc2o1 [Compound 562] |  |  |  |  | < 100 |  | < 100 | > 10 |
| C[C@H]1COCCN1c1cnc2ccc(-c3ccc4oc(N)nc4c3)nc2n1 [Compound 566] |  |  |  |  | < 100 |  | < 100 | > 10 |
| C[C@H]1CN(C2CN(c3cnc4ccc(-c5ccc6oc(N)nc6c5)nc4n3)C2)CCN1C [Compound 572] |  |  |  |  | < 100 | > 10 | > 10000 |  |
| CN1CCN(c2cnc3ccc(-c4ccc5oc(N)nc5c4)nc3c2)CC1 [Compound 575] |  |  |  |  | < 100 | < 0.1 | < 1000 |  |
| CCN(CC)c1cnc2ccc(-c3ccc4oc(N)nc4c3)nc2n1 [Compound 577] |  |  |  |  | < 1000 | > 10 | < 1000 |  |
| C[C@@H]1CN(c2cnc3ccc(-c4ccc5oc(N)nc5c4)nc3n2)CCN1 [Compound 578] |  |  |  |  | < 100 | < 0.1 | < 1000 |  |
| CC(C)N1CCN(c2cnc3ccc(-c4ccc5oc(N)nc5c4)nc3n2)CC1 [Compound 583] |  |  |  |  | < 100 | < 1 | < 1000 |  |
| CCOC(=O)N1CCN(c2cnc3ccc(-c4ccc5oc(N)nc5c4)nc3c2)CC1 [Compound 587] |  |  |  |  | < 100 |  | < 100 | > 10 |
| Nc1nc2cc(-c3ccc4ncc(N5CCC(O)CC5)nc4n3)ccc2o1 [Compound 596] |  |  |  |  | < 100 |  | < 100 | > 10 |
| C[C@@H]1CN(C2CN(c3cnc4ccc(-c5ccc6oc(N)nc6c5)nc4c3)C2)CCN1 [Compound 607] |  |  |  |  | < 100 |  | < 1000 | < 1 |
| C[C@@H]1COCCN1C1CN(c2cnc3ccc(-c4ccc5oc(N)nc5c4)nc3c2)C1 [Compound 617] |  |  |  |  | < 100 |  | < 100 | < 1 |
| CC(C)N1CCN(C2CN(c3cnc4ccc(-c5ccc6oc(N)nc6c5)nc4n3)C2)CC1 [Compound 628] |  |  |  |  |  | > 10 | > 10000 | > 10 |
